Literature values as cited in patent US5349105A, “Alkyl, alkoxy and thioalkoxy substituted diphenyl acetylenes having retinoid like activity” (Allergan, Inc., priority 1993, dated 1994).

Test system: ornithine decarboxylase (ODC)
Conditions: literature background

SMILES	induction of ODC activity (in words) (TPA as inducer)	inhibition of induction of ODC activity by TPA (in words) (retinoic acid)
CCCCCCCCCCCCCC(=O)O[C@@H]1[C@@H](C)[C@@]2(O)[C@@H](C=C(CO)C[C@]3(O)C(=O)C(C)=C[C@@H]23)[C@@H]2C(C)(C)[C@]12OC(C)=O [12-0-tetradecanoyl-phorbol-13-acetate]	induces ODC activity	–
CC1=C(/C=C/C(C)=C/C=C/C(C)=C/C(=O)O)C(C)(C)CCC1 [Retinoic acid]	–	inhibits this induction of ODC activity by TPA
